# What was measured:
# [1] = Phase I dose-escalation study (NCT03585322) in chronic hepatitis B patients: safety; type: in vivo, human
# Description: (§1) Methods: This study (NCT number: NCT03585322) is a multi-center, single-agent, open-label, Phase I dose-escalation study. Chronic hepatitis B (CHB) patients without receiving anti-HBV treatment within 6 months before screening were recruited and administrated with Compound (I) weekly via intravenous infusion (IV) in 4 escalated dosage (7 mg, 12 mg, 20 mg and 30 mg) for 4 weeks followed with 12 weeks follow up. The primary objective of this study is to assess the safety, with secondary outcome measures focused on pharmacokinetics (PK) and Pharmacodynamics (PD) of Compound (I) as monotherapy in CHB patients.
# [2] = Phase I dose-escalation study (NCT03585322) in chronic hepatitis B patients: pharmacokinetics; type: in vivo, human
# Description: as §1
# hepatitis B virus (HBV) = experiment: Phase I dose-escalation study (NCT03585322) in chronic hepatitis B patients: pharmacodynamics (HBsAg, HBV DNA); type: in vivo, human
# Description: as §1
# [3] = Phase I dose-escalation study (NCT03585322) in chronic hepatitis B patients: other findings (Fibro test score, ALT normalization); type: in vivo, human; settings: for Fibro Test Score Changes from baseline to end of follow-up, Mean(SD): 12 weeks follow up
# Description: as §1
# [4] = test system: IAPs (inhibitor of apoptosis proteins); experiment: Preclinical studies: IAP inhibition in vivo and in vitro
# chronic HBV infections = experiment: Preclinical studies: clearance of chronic HBV infection in different models
# [5] = 7 mg weekly IV for 4 weeks, n = 3 CHB patients
# [6] = 12 mg weekly IV for 4 weeks, n = 9 CHB patients
# [7] = 20 mg weekly IV for 4 weeks, N = 6 CHB patients
# [8] = 30 mg weekly IV for 4 weeks, N = 6 CHB patients
structure (smiles),measurement,setting,value
"CN[C@@H](C)C(=O)N[C@H]1CN(S(=O)(=O)c2cccc(S(=O)(=O)N3CC[C@H]4CC[C@@H](C(=O)NC(c5ccccc5)c5ccccc5)N4C(=O)[C@@H](NC(=O)[C@H](C)NC)C3)c2)CC[C@H]2CC[C@@H](C(=O)NC(c3ccccc3)c3ccccc3)N2C1=O [Compound (I), (5S ,5′S ,8S ,8′S,10aR,10a′R)-3,3′-(1,3-phenylenedisulfonyl)bis(N-benzhydryl-5-((S)-2-(methylamino)propanamido)-6-oxodecahydropyrrolo[1,2-a][1,5]diazocine-8-carboxamide)]",Any Drug-Related TEAE (%),[1]; [5],(66.7%)
same,Any Drug-Related TEAE N,[1]; [5],2
same,SAE (%),[1]; [5],(0%)
same,SAE N,[1]; [5],0
same,Any Drug-Related TEAE (%),[1]; [6],(33.3%)
same,Any Drug-Related TEAE N,[1]; [6],3
same,SAE (%),[1]; [6],(0%)
same,SAE N,[1]; [6],0
same,Any Drug-Related TEAE (%),[1]; [7],(100.0%)
same,Any Drug-Related TEAE N,[1]; [7],6
same,SAE (%),[1]; [7],(0%)
same,SAE N,[1]; [7],0
same,patients with grade 2 facial nerve disorder,[1]; 30 mg cohort,1 patient
same,time to recovery from grade 2 facial nerve disorder,"[1]; 30 mg cohort, 1 patient",≤ 4 weeks
same,Any Drug-Related TEAE (%),[1]; [8],(83.3%)
same,Any Drug-Related TEAE N,[1]; [8],5
same,SAE (%),[1]; [8],(16.7%)
same,SAE N,[1]; [8],1
same,"drug-related adverse event: ALT increase, incidence",[1]; all cohorts 7-30 mg weekly IV,26%
same,"drug-related adverse event: AST increase, incidence",[1]; all cohorts 7-30 mg weekly IV,22%
same,"drug-related adverse event: infusion site pain, incidence",[1]; all cohorts 7-30 mg weekly IV,15%
same,"drug-related adverse event: infusion site reaction, incidence",[1]; all cohorts 7-30 mg weekly IV,15%
same,"drug-related adverse event: total bile acids increase, incidence",[1]; all cohorts 7-30 mg weekly IV,15%
same,patients with grade 3 ALT or AST elevation,[1]; all cohorts 7-30 mg weekly IV,Four
same,"safety and tolerability, overall",[1]; ascending doses from 7 mg to 30 mg,safe and well tolerated
same,"grade 3 ALT or AST elevation, extent",[1]; the four patients with grade 3 elevation,5-15 × ULN
same,PK analysis: plasma exposure versus dose,"[2]; 7, 12, 20, 30 mg weekly IV",dose proportional increase in plasma exposure
same,PK analysis: accumulation after multiple dosing,[2]; weekly IV for 4 weeks,no accumulation after multiple dosing
same,patients with reduction of HBsAg at ≥0.5 log,hepatitis B virus (HBV); 5/26 patients,19%
same,patients with reduction of HBsAg at ≥0.2 log,hepatitis B virus (HBV); 12/26 patients,46%
same,patients with decline of HBV DNA,hepatitis B virus (HBV); 23 of 26 patients,89%
same,patients with prolonged HBsAg reduction,"hepatitis B virus (HBV); during post-treatment follow-up, 11/23 patients",48%
same,patients with reduction of HBsAg,"hepatitis B virus (HBV); week 4, 17 of 26 patients",65%
same,"Fibro Test Score Changes from baseline to end of follow-up, Mean(SD)","[3]; 7 mg weekly IV for 4 weeks, N = 3",0.27 kPa
same,"Fibro Test Score Changes from baseline to end of follow-up, Mean(SD)","[3]; 12 mg weekly IV for 4 weeks, N = 3",−1.80 kPa
same,"Fibro Test Score Changes from baseline to end of follow-up, Mean(SD)","[3]; 20 mg weekly IV for 4 weeks, N = 6",−0.33 kPa
same,"Fibro Test Score Changes from baseline to end of follow-up, Mean(SD)","[3]; 30 mg weekly IV for 4 weeks, N = 2",−4.05 kPa
same,patients with ALT normalization,[3]; 10/22 patients,46%
same,inhibition of IAPs,[4],inhibits IAPs in vivo and in vitro
same,clearance of chronic HBV infections,chronic HBV infections,can clear chronic HBV infections in different models

# Source: patent US20220047606A1, “TREATMENT METHOD WITH IAP INHIBITOR” (Ascentage Pharma (Suzhou) Co., Ltd., priority 2019, published 2022)
